Molecules are shown by their SMILES. Calls of active or inactive are those of the source. The rule behind the calls is not given here.

In the experiment the test system is S. cerevisiae tim23-1 mutant growth, luminescence. In words: analog potency on tim23-1 yeast growth – luminescence, S. cerevisiae, SAR follow-up (AID 602375).
Usually IC50 stands for the concentration that gives 50% inhibition. `CCOc1ccc(C(=O)O/N=C(\N)c2ccc(OC)cc2)cc1OCC`: the concentration for half-maximal inhibition (IC50) was 1.48 µM.
The same measure for `O=C(Nc1nc2ccccc2s1)C1CCCN1S(=O)(=O)c1ccc(Cl)cc1` (stereo unspecified): 12 µM; for `O=C(Nc1ccn[nH]1)c1cccc(OCc2cccnc2)c1`: > 99 µM (inactive).
Under `CN(C(=O)c1cccc(S(C)(=O)=O)c1)c1c(N)n(Cc2ccccc2)c(=O)[nH]c1=O` stands > 99 µM (inactive); under `N/C(Cc1ccc(Cl)cc1)=N\OC(=O)COc1ccccc1Cl`, 4.54 µM; under `CC(=O)Nc1ccc(C(C(F)(F)F)(C(F)(F)F)C(F)(F)F)cc1`, > 99 µM (inactive).
The same measure for `O=C(Nc1nc2c(s1)Cc1ccccc1-2)c1ccc(Br)s1`: > 99 µM (inactive).
As for `N/C(=N\OC(=O)c1ccc(Cl)cc1)c1ccc2nonc2c1`, the IC50 is > 99 µM (inactive).
Under `Cc1nc2scc(C)n2c(=O)c1S(=O)(=O)Nc1ccccc1` stands > 99 µM (inactive).
For `N#Cc1c(-c2ccc([N+](=O)[O-])cc2)cc(-c2ccccc2)nc1N`, the IC50 is > 99 µM (inactive).
Consider `Cc1nc2scc(C)n2c(=O)c1S(=O)(=O)Nc1ccc(F)cc1Cl`, for which the 50% inhibitory concentration (IC50) is 52.7 µM.
Under `Cc1nn(Cc2cccc(C(=O)O/N=C(\N)c3ccc(Cl)cc3)c2)c(C)c1Br` stands 2.65 µM; under `O=C(CSCc1ccccc1)Nc1cc(S(=O)(=O)N2CCOCC2)ccc1Oc1ccccc1`, > 99 µM (inactive); under `O=c1cc(CSc2ccc(C(F)(F)F)cn2)nc2ccc(Br)cn12`, > 99 µM (inactive).
The same measure for `CC1(C)C=Cc2cc(/C(N)=N/OC(=O)c3ccccc3)ccc2O1`: 0.617 µM; for `N/C(=N\OC(=O)c1ccc(Cl)cc1)c1ccc(-c2csnn2)cc1`: > 99 µM (inactive); for `N#Cc1c(-c2ccccc2)cc(-c2ccc(O)cc2)nc1N`: 2.9 µM.
As to `Cc1c2c(n(Cc3ccco3)c1C)N=CN1CCS(=O)(=O)N=C21`, the IC50 is > 99 µM (inactive).
Consider `CC(C)(C)c1csc(NC(=O)c2ccc(Cl)s2)n1`, for which the IC50 is 17.3 µM.
For the compound `O=C(Nc1ccc(-c2cn3ccccc3n2)cc1)c1cccs1`, the concentration for half-maximal inhibition (IC50) was 0.897 µM.
Take `CCOc1ccc2nc(N3C(=O)CNC3=S)sc2c1`: the IC50 was > 99 µM (inactive).
For the compound `O=C1OC(c2ccccc2)=N/C1=C\C=C\c1ccco1`, the IC50 was 2.44 µM.
`N/C(=N\OC(=O)c1ccc2ccccc2c1)c1ccc(I)cc1`: the IC50 was > 99 µM (inactive).
The same measure for `Cc1nc2scc(C)n2c(=O)c1S(=O)(=O)Nc1ccc(N2CCN(S(C)(=O)=O)CC2)cc1`: > 99 µM (inactive).
The same measure for `O=S(=O)(Nc1ccc(-c2cn3c(n2)SCC3)cc1)c1cccnc1`: > 99 µM (inactive); for `Cc1cc(OCC(=O)O/N=C(\N)Cc2ccc(Cl)cc2)ccc1Br`: 3.69 µM; for `C(/C=C/c1ccccc1)=NNc1nc2ccccc2[nH]1`: 11.2 µM.
Regarding `O=C(O/N=C(/c1ccc(Br)cc1)N1CCOCC1)c1ccccc1`, the IC50 is 0.787 µM.
The same measure for `COc1ccc([N+](=O)[O-])cc1NS(=O)(=O)c1c(C)nc2scc(C)n2c1=O`: > 99 µM (inactive); for `Cn1c(SCc2cccc(/C(N)=N/OC(=O)c3ccc(Cl)cc3)c2)nnc1C(F)(F)F`: 2.37 µM; for `Cc1ccc2nc(NC(=O)C3CCCN3S(C)(=O)=O)sc2c1` (stereo unspecified): 91.9 µM.
Turning to `Cc1ccc2nc(N3CCN(S(C)(=O)=O)CC3)[nH]c2c1`, the IC50 is > 99 µM (inactive).
Under `O=C(Nc1ccc2nc(-c3ccc(Br)o3)[nH]c2c1)c1cccs1` stands 0.882 µM; under `COc1ccc(C2N=C(c3ccccc3C)NO2)cc1O` (stereo unspecified), > 99 µM (inactive).
Regarding `O=c1cc(CSc2ccccn2)nc2ccccn12`, the IC50 is > 99 µM (inactive).
As to `N/C(=N\OC(=O)c1ccc(Cl)cc1)c1ccc(Cl)cc1`, the half-inhibitory concentration (IC50) is 3.02 µM.
For `Cc1nc2scc(C)n2c(=O)c1S(=O)(=O)Nc1ccc(OC(F)(F)F)cc1`, the IC50 was 16.5 µM.
For `Cc1ccc(-c2nc3ccc(NC(=O)c4cccs4)cc3[nH]2)o1`, the IC50 was 1.42 µM.
Under `CCOc1cc2ccccc2cc1C(=O)O/N=C(\N)c1ccc(Cl)cc1` stands 1.57 µM; under `N#C/C(=C\c1ccc(Cl)cc1)C(=O)Nc1cccnc1`, 16 µM.
Under `CC(=O)c1ccc2[nH]c3c(c2c1)CCCC3=O` stands > 99 µM (inactive).
Under `N#Cc1ccc(C2N=C(c3ccccc3)NO2)cc1` (stereo unspecified) stands > 99 µM (inactive); under `Cc1nc2scc(C)n2c(=O)c1S(=O)(=O)Nc1ccc(N2CCOCC2)c(Cl)c1`, > 99 µM (inactive).
In the case of `Cc1nc2scc(C)n2c(=O)c1S(=O)(=O)Nc1ccc(N2CCN(C(=O)C(C)C)CC2)cc1`, the IC50 is > 99 µM (inactive).
Under `Cc1ccc2nc(CSc3ccc(S(=O)(=O)N4CCCC4)cn3)cc(=O)n2c1` stands > 99 µM (inactive); under `O=C(NN=C/C=C\c1ccco1)c1cccs1`, 6.87 µM; under `Cc1nc2scc(C)n2c(=O)c1S(=O)(=O)Nc1ccc(N2CCOCC2)cc1`, 16.3 µM.
For `O=C(Nc1ccn[nH]1)c1ccc(Br)cc1Cl`, the IC50 is > 99 µM (inactive).
Under `Cc1nc(SCc2cc(=O)n3cc(Br)ccc3n2)c(C#N)c(C)c1C` stands > 99 µM (inactive).
For the compound `O=C(CSc1cccc[n+]1[O-])Nc1ccccc1Oc1ccccc1`, the concentration for half-maximal inhibition (IC50) is 1.06 µM.
With `Cc1cc2cc(CNC(=O)c3ccc(F)c(F)c3)ccc2[nH]1`, the IC50 was > 99 µM (inactive).
The same measure for `Cc1nc2scc(C)n2c(=O)c1S(=O)(=O)Nc1ccc(Oc2ccc(Cl)cc2)cc1`: > 99 µM (inactive); for `O=C(O)c1cccnc1SCc1cc(=O)n2cc(Br)ccc2n1`: > 99 µM (inactive); for `CCN(C(=O)c1cccc2ncccc12)c1c(N)n(Cc2ccccc2)c(=O)[nH]c1=O`: > 99 µM (inactive).
Turning to `CC(C)Cn1cnc2c(c(-c3ccccc3)c(-c3ccccc3)n2Cc2ccco2)c1=N`, the concentration for half-maximal inhibition (IC50) is 21.6 µM.
Take `O=c1cc(CSc2ccc(S(=O)(=O)N3CCCCC3)cn2)nc2ccc(Br)cn12`: the IC50 was 70.2 µM.
The same measure for `N=c1c2c(-c3ccccc3)c(-c3ccccc3)n(Cc3ccco3)c2ncn1CCCN1CCOCC1`: > 99 µM (inactive).
With `Cc1ccc(-c2nn(-c3ccccc3)cc2NC(=O)CCl)cc1`, the IC50 is 1.75 µM.
In the case of `O=c1cc(C(F)F)oc2c1ccc1ccccc12`, the IC50 is > 99 µM (inactive).
Under `Cc1ccc2nc(CS(=O)(=O)c3ncccc3Cl)cc(=O)n2c1` stands > 99 µM (inactive); under `Cc1nc2scc(C)n2c(=O)c1S(=O)(=O)Nc1ccc(Cl)c(C(F)(F)F)c1`, > 99 µM (inactive); under `CCN1CCc2nc3sc(C(=O)Nc4cc(Cl)ccc4OC)c(N)c3cc2C1`, > 99 µM (inactive).
On to `COc1ccc2c(C)cc(SCc3cc(=O)n4cc(C)ccc4n3)nc2c1`, for which the IC50 is > 99 µM (inactive).
Under `N/C(=N\OC(=O)c1ccc2ncsc2c1)c1ccccc1` stands 14.8 µM.
`N/C(=N\OC(=O)c1ccc2ncsc2c1)c1ccc(Cl)cc1Cl`: the 50% inhibitory concentration (IC50) is 1.48 µM.
Consider `Cc1csc(NC(=O)c2sc3nc4c(cc3c2N)CN(C)CC4)n1`, for which the IC50 was > 99 µM (inactive).
For `CN1CCN(c2nc(-c3cccnc3)nc3ccccc23)CC1`, the IC50 is > 99 µM (inactive).
Regarding `CCCN(C(=O)c1ccc([N+](=O)[O-])c(C)c1)c1c(N)n(Cc2ccccc2)c(=O)[nH]c1=O`, the IC50 was 0.987 µM.
In the case of `CCN(CC)S(=O)(=O)c1ccc(C(=O)OCn2nnc3ccccc3c2=O)cc1`, the concentration for half-maximal inhibition (IC50) is 13 µM.
Under `Cc1cccn2c(=O)cc(CSc3cc(C(=O)NC4CC4)c4ccccc4n3)nc12` stands > 99 µM (inactive).
In the case of `O=C(N/N=C/C(Cl)=C\c1ccccc1)c1cccs1`, the concentration for half-maximal inhibition (IC50) is 2.3 µM.
As to `Cc1nc2scc(C)n2c(=O)c1S(=O)(=O)Nc1cc(C(F)(F)F)ccc1Cl`, the IC50 is > 99 µM (inactive).
On to `CCn1c(N2CCN(S(=O)(=O)c3ccc(OC)cc3)CC2)nc2ccccc21`, for which the IC50 is 3.69 µM.
The same measure for `Cc1ccc(/C(N)=N/OC(=O)c2ccccc2)cc1F`: 1.52 µM; for `O=C(Nc1ccc2nc(-c3ccco3)[nH]c2c1)c1cccs1`: 0.459 µM; for `COc1ccc(Cl)cc1NS(=O)(=O)c1c(C)nc2scc(C)n2c1=O`: > 99 µM (inactive).
The same measure for `Cc1nc2scc(C)n2c(=O)c1S(=O)(=O)Nc1cccc(O)c1`: > 99 µM (inactive).
The same measure for `N/C(=N\OC(=O)c1ccc(Cl)cc1)c1ccc(Oc2ccc(C(F)(F)F)cn2)cc1`: 0.57 µM.
As to `CC(=O)c1ccc(NS(=O)(=O)c2c(C)nc3scc(C)n3c2=O)cc1`, the IC50 is 15.9 µM.
On to `COc1ccc(/C=C/C(=O)Nc2ccc3c(c2)CCC3)cc1OC`, for which the concentration for half-maximal inhibition (IC50) was 1.72 µM.
Consider `Cc1ccc(S(=O)(=O)Cc2cc(=O)n3ccccc3n2)nc1`, for which the IC50 is > 99 µM (inactive).
The same measure for `N/C(Cc1cccc2ccccc12)=N\OC(=O)COc1ccc(Cl)cc1Cl`: 19.1 µM.
`Cc1ccc(-c2cc(NC(=O)c3c(C)noc3C)nc(-c3ccccc3)c2)cc1`: the IC50 was > 99 µM (inactive).
Under `COc1ccc(/C(N)=N/OC(=O)c2ccc(C(F)(F)F)cc2)c(OC)c1` stands > 99 µM (inactive); under `CN1CCc2nc3sc(C(=O)C45CC6CC(CC(C6)C4)C5)c(N)c3cc2C1`, 18.1 µM.
Under `Cc1ccc2nc(CSc3nc(C)c(C)c(C)c3C(N)=O)cc(=O)n2c1` stands 29.6 µM.

These data come from PubChem BioAssay AID602375 (Sanford-Burnham Center for Chemical Genomics, 2012).
